The text below walks through data of patent US5474989A, “Drug composition” (priority 1988, dated 1995).

Data set [1] in a line: Dissolution rate of drug into water, solid dispersion with low molecular weight chitosan C-5 versus drug alone (Example 4). It is filed as physicochemical. The settings on record: drug alone without additive; 10 to 30 mg in 60 ml, 57 rpm, water 37° C. The protocol:
Each 3 parts by weight of the chitosan products C-0 to C-5 was added to 1 part by weight of flurbiprofen (denoted sometimes hereinafter as FP) and the mixture kneaded with the addition of water in an amount of 2-fold of that of the chitosan product for 1 hour. The kneaded mixture was dried under a reduced pressure at room temperature for 48 hours. A fraction of the particles that passed through 100-mesh standard sieve was employed as the solid dispersion. For each of these solid dispersions, the dissolution rate of FP into water at 37° C. was observed by the procedure given below:
500 ml of water were charged in a dissolution rate measuring device (made by Toyama Sangyo Co., Ltd.) maintained at 37° C. and thereto was further added each of the above solid dispersions in an amount corresponding to 40 mg as FP and the mixture was agitated at 91 rpm. The agitated mixture was sampled each in an amount of 3 ml at a regular time interval with a pipette fitted with a cotton plug. Each sample was filtered through a 0.45 μm membrane filter and the FP concentration of the filtrate was determined after extraction with chloroform.
The rate of dissolution was determined for drug compositions having the low molecular weight chitosan C-5 obtained in Reference Example 1, by observing the concentration of the drug in the same manner as in Example 1 at a regular time interval except that the drug was charged in an amount within the range of from 10 to 30 mg in 60 ml of solution and the agitation was effected at 57 rpm. The ratio of the dissolved amount of drug to the total charged amount of the drug was calculated. Results are summarized in FIGS. 5(A)- 5(G) in a corresponding graph. The experimental results for flurbiprofen are given here again.
The average dissolution time calculated from the rate of dissolution for each drug is recited in Table 3. The calculation of the average dissolution time was made basing on the method given in "Chem. Pharm. Bull.", 30, 1088 (1982).

A short description of data set [2]: Solubility of drugs in aqueous solutions of low molecular weight chitosan C-5 (Example 3). The settings on record: aqueous solution of C-5, varying concentration, 25° C., 10 days. The protocol:
Each 5 mg of vitamin E and vitamin K was accurately weighed (this amount is chosen so as to exceed above the solubility limits of these drugs) and placed in a test tube. […] Each of the solutions which reached dissolution equilibrium was sampled with a pippette fitted with a cotton plug. The sample was filtered through a 0.45 μm membrane filter and the concentration of vitamin E or vitamin K was determined by means of UV-determination after extraction with chloroform.

The nature of data set [3]: Wetting contact angle of water drops on tablet surface (Example 7). It is filed as physicochemical. The following applies: tablet 2 cm diameter, 50 μl water drop. The protocol:
Examination was effected for the samples of the solid dispersions as obtained in Example 5 and for each drug alone without any additive. The wetting was evaluated by determining the wetting contact angle of water drops on the surface of a tablet having a diameter of 2 cm obtained using an IR tabletting machine with a drop of water of 50 μl.

The conditions of data set [4]: chitosan in a form of a solution of acetic acid salt, versus polyvinylpyrrolidone; cited from earlier work.

Take `C[C@H]1C[C@H]2[C@@H]3CCC4=CC(=O)C=C[C@]4(C)[C@@]3(F)[C@@H](O)C[C@]2(C)[C@@]1(O)C(=O)CO` [Betamethasone, betamethasone]: the “Average Dissolution Time, Drug alone” value in data set [1] is 45.9 min. Besides, the “dissolution characteristic curve type” value in data set [2] is “dissolution characteristic curve of Bs-type”.
As to `C[C@H]1O[C@@H](O[C@H]2[C@@H](O)C[C@H](O[C@H]3[C@@H](O)C[C@H](O[C@H]4CC[C@@]5(C)[C@H](CC[C@@H]6[C@@H]5C[C@@H](O)[C@]5(C)[C@@H](C7=CC(=O)OC7)CC[C@]65O)C4)O[C@@H]3C)O[C@@H]2C)C[C@H](O)[C@@H]1O` [Digoxin, digoxin], the “Average Dissolution Time, Drug alone” value in data set [1] amounted to 40.9 min. The “solubility of drug with increasing concentration of low molecular weight chitosan” value in data set [2] is given as “an increase in the solubility of the drug was recognized”.
For `CC(C(=O)O)c1ccc(-c2ccccc2)c(F)c1` (centres unmarked) [Flurbiprofen, flurbiprofen], the “Average Dissolution Time, Drug alone” value in data set [1] came out at 46.1 min. Also, the “Wetting Contact Angle, Drug alone” value in data set [3] is reported as 55 °.
In the same order, the values of `COc1ccc2c(c1)c(CC(=O)O)c(C)n2C(=O)c1ccc(Cl)cc1` [Indomethacin, indomethacin] are 24.8 min and 50 °.
As for `O=C1NC(=O)C(c2ccccc2)(c2ccccc2)N1` [Phenytoin, phenytoin], in data set [1], the “Average Dissolution Time, Drug alone” value worked out at 35.9 min. Further, in data set [2], the “solubility of drug with increasing concentration of low molecular weight chitosan” value is on record as “an increase in the solubility of the drug was recognized”.
On to `C[C@]12C=CC(=O)C=C1CC[C@@H]1[C@@H]2[C@@H](O)C[C@@]2(C)[C@H]1CC[C@]2(O)C(=O)CO` [Prednisolone, prednisolone], for which the “Average Dissolution Time, Drug alone” value in data set [1] came out at 18.7 min.
Consider `C[C@]12C=CC(=O)C=C1CC[C@H]1[C@@H]3C[C@@H](O)[C@](O)(C(=O)CO)[C@@]3(C)C[C@H](O)[C@@]12F` [Triamcinolone, triamcinolone], for which, in data set [1], the “Average Dissolution Time, Drug alone” value worked out at 24.3 min. Moreover, the “Wetting Contact Angle, Drug alone” value in data set [3] worked out at 50 °.
For `CO[C@@H]1[C@@H](O[C@@H]2O[C@H](C)[C@@H](O[C@H]3C[C@@](C)(O)[C@@H](OC(=O)CC(C)C)[C@H](C)O3)[C@H](N(C)C)[C@H]2O)[C@@H](CC=O)C[C@@H](C)[C@@H](O)/C=C/C=C/C[C@@H](C)OC(=O)C[C@H]1O` [kitasamycin], in data set [4], the “effect of chitosan on the dissolution rate of kitasamycin” value is listed as “lower than that of polyvinylpyrrolidone”.
